Read-outs that look alike come from different tables or passages of the source.
Columns and labels:
[1] = Pharmacokinetic study of rats (bioavailability); format: in vivo; details: rat, blood, 1-2 mg/kg iv vs 2-40 mg/kg PO
Protocol: In the pharmacokinetic study of rats, Group 1 (3 rats) was administrated with 1-2 mg/kg, iv, and Group 2 (3 rats) was administrated with 2-40 mg/kg, PO. Blood was sampled at 7 time points (0.25, 0.5, 1, 2, 4, 8 and 16 hours points) to measure the concentration of the quinazoline derivatives (I) prepared by the present disclosure in blood and calculate the peak area and half-life. Bioavailability is calculated as (peak area of oral drug/oral dose)/(peak area of intravenous drug/intravenous dose)×100%.

[2] = tested on: patient's primary tumor tissue GBM (EGFRV3 mutated brain tumor); assay: Survival in mouse intracranial PDX model; format: in vivo, mice; details: 30 mg/kg, PO, BID, treatment more than 50 d, FIG. 2
Protocol: The patient's primary tumor tissue GBM (brain tumor, about 50,000 cells) was seeded into the brain of mice. Administration began after the tumor grew for about 10 d and treatment lasted for more than 50 d. In the pharmacodynamic study of tumor transplanted animal model with EGFRV3 mutated brain tumor from patient's primary tumor tissue in mice, Group 1 was the control group (8 mice) without any medication. Group 2 received (R)-6-((3,3-difluoro-1-methylpiperidin-4-yl)oxy)-N-(3-ethynyl-2-fluorophenyl)-7-methoxyquinazoline-4-amine monotherapy group (8 mice), 30 mg/kg, PO, BID.

[3] = Rate of crossing blood-brain barrier in rats; format: in vivo; details: 4 h after administration
Protocol: To determine whether (R)-6-((3,3-difluoro-1-methylpiperidin-4-yl)oxy)-N-(3-ethynyl-2-fluorophenyl)-7-methoxyquinazoline-4-amine prepared by the present disclosure is able to cross the blood-brain barrier (BBB), the test compound was administered to rats. After 4 h of administration, the rats were killed and blood and brain tissues were collected to test the compound concentration. Brain osmosis is defined as the ratio of the concentration of compounds in brain tissue to the concentration in plasma. The rate of crossing blood-brain barrier is the ratio of free drug concentration in brain tissue to free drug concentration in plasma. P-glycoprotein is an efflux protein at the blood-brain barrier that excretes P-glycoprotein substrate from the brain. Breast cancer resistance protein is an efflux protein at the blood-brain barrier that excretes […].

[4] = tested on: PC-9luc tumor cells (non-small cell lung cancer with Exon 19 Del); assay: Survival in mouse model of intracranial meningeal metastasis; format: in vivo; details: PO, BID, PC-9luc seeded into brain of mice, FIG. 3
Protocol: PC-9luc tumor cells (non-small cell lung cancer with Exon 19 Del, about 2×10^5 cells) were seeded into the brain of mice, and administration was started approximately 11 days after tumor growth. Group 1 was the control group (8 mice), without any medication. Group 2 received Iressa (8 mice), 15 mg/kg, PO. Group 3 received (R)-6-((3,3-difluoro-1-methylpiperidin-4-yl)oxy)-N-(3-ethynyl-2-fluorophenyl)-7-methoxyquinazoline-4-amine monotherapy group (8 mice), 10 mg/kg, PO, BID. Group 4 received (R)-6-((3,3-difluoro-1-methylpiperidin-4-yl)oxy)-N-(3-ethynyl-2-fluorophenyl)-7-methoxyquinazoline-4-amine monotherapy group (8 mice), 3 mg/kg, PO, BID.

P-glycoprotein = P-glycoprotein (Homo sapiens, UniProt P08183); assay: P-glycoprotein efflux substrate test; format: in vitro ADME
[5] = tested on: Human glioma tumor cell with EGFRVIII mutation; assay: CellTiter-Glo (CTG) cell viability, glioma cells; format: cell-based; details: 72 h of drug addition, read-out: Growth inhibition IC50, human glioma tumor cell with EGFRVIII mutation
Protocol: (§1) Cell viability of tumor cells and gliomas with EGFR-activated mutant (Exon 19 Del, PC-9 cell; Exon 21 L858R, H3255 cell) protein was detected using CellTiter-Glo (CTG) assay; approximately 5000 cells were placed in each blank of the 96-well plate. The diluted compound was added proportionally after 16 h and equilibrated at room temperature for 30 min after 72 h of drug addition. 100 µL of CellTiter-Glo reagent was added to each well and mixed well on an orbital shaker for 2 min to induce cell lysis. The plate was incubated at room temperature for 10 min to stabilize the luminous signal. The luminous signal was recorded on a TECAN Infinite M1000 Pro instrument.

EGFR enzyme = EGFR enzyme (Homo sapiens, UniProt P00533); assay: EGFR enzyme ADP-Glo mechanism of action study (ATP titration); format: biochemical; details: PolyE4Y1 substrate, ATP diluted from 600 uM, FIG. 4
Protocol: In the study of the mechanism of action of (R)-6-((3,3-difluoro-1-methylpiperidin-4-yl)oxy)-N-(3-ethynyl-2-fluorophenyl)-7-methoxyquinazoline-4-amine prepared by the present disclosure to inhibit EGFR, EGFR enzyme was added to a solution of PolyE4Y1 on a 384-well plate from 6 concentrations diluted at an equal ratio of 0.4 nM (2-fold) to 0.0125 nM and 0 concentration, and incubated for 15 min. ATP was added at 7 concentrations diluted at an equal ratio of 600 uM (2-fold) for reaction for 60 min, and then ADP-Glo reagent and detection reagent were added for 40 min to measure RLU signal. […] The benefits of this mechanism of action are obvious, with minimal side effects and anti-drug resistance.

[6] = tested on: PC-9 tumor cell (EGFR Del 19 mutation); assay: CellTiter-Glo (CTG) cell viability, PC-9 cells; format: cell-based; details: Homo sapiens, 72 h of drug addition, read-out: Growth inhibition IC50, PC-9 tumor cell (EGFR Del 19 mutation)
Protocol: as §1

[7] = tested on: H3255 tumor cell (EGFR L858R mutation); assay: CellTiter-Glo (CTG) cell viability, H3255 cells; format: cell-based; details: Homo sapiens, NCI-H3255, 72 h of drug addition, read-out: Growth inhibition IC50, H3255 tumor cell (EGFR L858R mutation)
Protocol: as §1

[8] = biological target: T1, Breast cancer resistance protein (Homo sapiens, UniProt Q9UNQ0); assay: Breast cancer resistance protein efflux substrate test; format: in vitro ADME
T1 sequence (Q9UNQ0 1-655): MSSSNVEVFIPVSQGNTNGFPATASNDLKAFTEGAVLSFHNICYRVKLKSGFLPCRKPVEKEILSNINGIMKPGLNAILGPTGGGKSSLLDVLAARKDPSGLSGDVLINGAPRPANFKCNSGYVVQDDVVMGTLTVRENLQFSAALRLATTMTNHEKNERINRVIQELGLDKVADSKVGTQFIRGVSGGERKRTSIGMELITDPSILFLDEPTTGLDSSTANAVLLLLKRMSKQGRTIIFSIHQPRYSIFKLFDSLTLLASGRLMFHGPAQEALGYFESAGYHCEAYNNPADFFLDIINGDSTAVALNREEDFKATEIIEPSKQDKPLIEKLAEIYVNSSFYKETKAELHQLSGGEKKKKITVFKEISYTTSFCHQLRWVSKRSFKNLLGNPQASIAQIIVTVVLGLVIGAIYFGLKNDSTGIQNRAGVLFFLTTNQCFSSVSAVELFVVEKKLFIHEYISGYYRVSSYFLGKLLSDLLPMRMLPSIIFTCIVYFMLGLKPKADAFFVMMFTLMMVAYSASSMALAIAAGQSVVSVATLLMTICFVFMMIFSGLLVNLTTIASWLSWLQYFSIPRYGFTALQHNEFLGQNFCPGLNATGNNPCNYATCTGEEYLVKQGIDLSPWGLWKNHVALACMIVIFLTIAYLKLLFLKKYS

[9] = listed as -1-3,3-difluoro-1-methylpiperidin-4-yl)oxy)-N-(3-ethynyl-2-fluorophenyl)-7-metho

P-glycoprotein, sequence (P08183 whole entry): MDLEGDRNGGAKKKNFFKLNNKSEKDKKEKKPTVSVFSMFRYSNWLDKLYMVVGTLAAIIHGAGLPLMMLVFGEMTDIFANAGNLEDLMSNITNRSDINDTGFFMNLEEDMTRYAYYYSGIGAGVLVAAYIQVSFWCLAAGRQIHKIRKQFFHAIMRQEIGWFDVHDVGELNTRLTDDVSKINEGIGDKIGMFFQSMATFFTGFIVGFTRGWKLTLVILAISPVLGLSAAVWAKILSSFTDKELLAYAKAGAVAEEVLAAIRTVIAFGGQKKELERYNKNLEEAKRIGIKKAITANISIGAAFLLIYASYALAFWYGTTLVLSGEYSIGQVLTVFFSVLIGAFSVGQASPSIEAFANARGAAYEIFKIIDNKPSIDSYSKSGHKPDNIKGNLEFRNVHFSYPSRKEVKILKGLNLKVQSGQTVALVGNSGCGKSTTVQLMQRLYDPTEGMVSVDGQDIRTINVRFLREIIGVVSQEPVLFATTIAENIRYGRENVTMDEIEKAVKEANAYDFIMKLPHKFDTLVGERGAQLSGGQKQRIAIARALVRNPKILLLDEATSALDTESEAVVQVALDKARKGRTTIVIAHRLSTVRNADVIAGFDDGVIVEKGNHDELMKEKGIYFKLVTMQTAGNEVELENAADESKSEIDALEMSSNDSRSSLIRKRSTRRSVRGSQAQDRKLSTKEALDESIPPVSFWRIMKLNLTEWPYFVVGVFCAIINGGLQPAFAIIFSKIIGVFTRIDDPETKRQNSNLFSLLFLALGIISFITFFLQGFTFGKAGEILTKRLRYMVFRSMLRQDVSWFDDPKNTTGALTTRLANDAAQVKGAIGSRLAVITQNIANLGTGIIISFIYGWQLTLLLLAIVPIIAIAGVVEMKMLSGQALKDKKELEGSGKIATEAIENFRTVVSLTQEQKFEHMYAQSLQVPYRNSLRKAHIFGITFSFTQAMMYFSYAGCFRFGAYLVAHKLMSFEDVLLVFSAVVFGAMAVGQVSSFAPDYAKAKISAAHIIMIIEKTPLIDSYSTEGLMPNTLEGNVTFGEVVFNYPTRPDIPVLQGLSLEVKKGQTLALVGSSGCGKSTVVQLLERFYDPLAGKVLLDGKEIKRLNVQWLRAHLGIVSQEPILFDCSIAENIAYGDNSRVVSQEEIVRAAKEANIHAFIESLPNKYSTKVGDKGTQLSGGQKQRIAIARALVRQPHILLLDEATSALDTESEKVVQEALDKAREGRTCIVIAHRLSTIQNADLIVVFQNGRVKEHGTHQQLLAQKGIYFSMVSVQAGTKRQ
EGFR enzyme, sequence (P00533 25-1210): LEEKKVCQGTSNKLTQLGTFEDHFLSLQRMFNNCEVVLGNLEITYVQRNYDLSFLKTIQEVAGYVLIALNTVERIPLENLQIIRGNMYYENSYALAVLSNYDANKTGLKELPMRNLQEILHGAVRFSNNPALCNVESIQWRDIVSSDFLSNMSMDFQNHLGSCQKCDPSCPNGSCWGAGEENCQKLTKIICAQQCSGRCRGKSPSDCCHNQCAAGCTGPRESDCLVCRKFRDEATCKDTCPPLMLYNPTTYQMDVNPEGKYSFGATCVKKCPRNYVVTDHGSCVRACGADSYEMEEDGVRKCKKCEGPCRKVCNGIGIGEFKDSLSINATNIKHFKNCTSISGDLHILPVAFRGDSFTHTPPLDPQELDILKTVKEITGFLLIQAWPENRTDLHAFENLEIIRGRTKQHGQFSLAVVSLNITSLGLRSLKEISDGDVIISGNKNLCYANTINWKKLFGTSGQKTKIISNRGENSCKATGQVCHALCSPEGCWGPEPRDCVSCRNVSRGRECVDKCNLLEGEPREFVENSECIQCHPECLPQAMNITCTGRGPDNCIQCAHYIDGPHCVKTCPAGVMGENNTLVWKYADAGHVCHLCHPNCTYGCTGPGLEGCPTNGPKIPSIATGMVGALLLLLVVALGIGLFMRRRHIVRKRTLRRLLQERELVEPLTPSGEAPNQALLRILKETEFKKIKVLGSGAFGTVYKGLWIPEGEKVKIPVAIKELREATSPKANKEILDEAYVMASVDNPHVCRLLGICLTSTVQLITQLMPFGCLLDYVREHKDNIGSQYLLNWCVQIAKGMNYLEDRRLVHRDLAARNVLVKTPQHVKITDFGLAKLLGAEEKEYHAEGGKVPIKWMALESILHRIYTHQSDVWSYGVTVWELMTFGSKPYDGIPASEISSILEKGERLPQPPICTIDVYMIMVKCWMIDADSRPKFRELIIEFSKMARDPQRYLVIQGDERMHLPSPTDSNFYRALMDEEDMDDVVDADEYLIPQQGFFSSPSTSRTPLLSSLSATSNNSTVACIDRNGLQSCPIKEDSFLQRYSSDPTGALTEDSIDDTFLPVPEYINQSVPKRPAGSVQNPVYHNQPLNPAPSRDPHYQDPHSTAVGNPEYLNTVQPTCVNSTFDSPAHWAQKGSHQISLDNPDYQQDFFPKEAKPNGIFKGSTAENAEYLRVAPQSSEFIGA

## C#Cc1cccc(Nc2ncnc3cc(OC)c(O[C@@H]4CCN(C)CC4(F)F)cc23)c1F [(R)-6-((3,3-difluoro-1-methylpiperidin-4-yl)oxy)-N-(3-ethynyl-2-fluorophenyl)-7-methoxyquinazoline-4-amine]
[1]
  bioavailability: > 35%
[2]
  Survival compared to control group: significantly prolonged
[3]
  Rate of crossing blood-brain barrier (ratio of free drug concentration in brain tissue to free drug concentration in plasma): >50%
[3]; rat, brain tissue and plasma (free drug concentrations), read-out: Rate of crossing blood-brain barrier (ratio of free drug concentration in brain tissue to free drug concentration in plasma)
  Kp at 4 h: > 0.5
[4]; Group 3, 10 mg/kg
  Survival: significantly improved
[4]; Group 4, 3 mg/kg
  Survival: significantly improved
P-glycoprotein
  P-glycoprotein efflux substrate: No
P-glycoprotein; [9]
  P-glycoprotein efflux substrate: not P-glycoprotein substrate
[5]
  IC50: 10 nM
EGFR enzyme
  Mechanism of action of EGFR inhibition: non-ATP competitive
[6]
  IC50: 8 nM
[7]
  IC50: 2 nM
[8]
  Breast cancer resistance protein efflux substrate: No
[8]; [9]
  Breast cancer resistance protein efflux substrate: not P-glycoprotein substrate or breast cancer resistance protein efflux substrate

Reference: patent publication US20250092015A1, “A 6-substituted Chiral Pure Difluoropiperidine Quinazoline Derivative And Its Preparation Method” (WEISHANG (SHANGHAI) BIO-PHARMACEUTICAL CO., LTD., priority 2022, published 2025)
